# Reference: article PMC11422593, “Structural and biochemical analysis of highly similar HLA-B allotypes differentially associated with type 1 diabetes” (The Journal of Biological Chemistry, 2024)
# Like-named read-outs stand apart in the source and are kept apart here. No end group written: not given here.
# Tests used:
# [1] = target: HLA-B∗38:01 (purified MHC molecules) (human); experiment: radioligand binding
# [2] = target: HLA-B∗39:01 (purified MHC molecules) (human); experiment: radioligand binding
# [3] = target: HLA-B∗39:06 (purified MHC molecules) (human); experiment: radioligand binding
# HLA-B∗39:06 [4] = target: T1, HLA-B∗39:06 (Homo sapiens, UniProt P01889, A182T/A93T/A95T/C349S/D138N/D201E/E176V/E187T/E204Q/K202T/L119W/Q94N/R155S/R180L/S121T/Y140F/Y91C); details: cited from earlier work
# Description: We previously reported the sequences of peptides endogenously bound to and eluted from HLA-B∗39:06 molecules purified from the human lymphoblastoid cell line C1R/HLA-B∗39:06 ([26]). […] Our strategy was based on the prior seminal observations of Ploegh et al. ([27]) that the incubation of cells at 26 °C allows for empty class I MHC molecules to reach the cell surface, and that the MHC can be stabilized if a binding peptide is also included. […] Assays to quantitatively measure peptide binding to purified B∗39:06 and B∗39:01 molecules were based on the inhibition of binding of a high-affinity radiolabeled peptide and performed as described ([26]).
# HLA-B∗38:01 [5] = target: T2, HLA-B∗38:01 (Homo sapiens, UniProt P01889, A182T/A93T/A95T/C349S/D138N/D201E/D98Y/E176V/E187T/E204Q/G107R/K202T/L105A/N104I/Q94N/R106L/R155S/R180L/S101N/S121R/Y140F/Y91C); experiment: biochemical
# HLA-B∗39:01 = target: T3, HLA-B∗39:01 (Homo sapiens, UniProt P01889, A182T/A93T/A95T/C349S/D138N/D201E/E176V/E187T/E204Q/K202T/Q94N/R155S/R180L/S121R/Y140F/Y91C); experiment: biochemical; assay type: binding
# T3 construct: made in house
# HLA-B∗39:06 [6] = target: T1, HLA-B∗39:06; experiment: biochemical; assay type: binding
# HLA-B∗38:01 [7] = target: T2, HLA-B∗38:01; design: made in house; details: read-out: IC50 of the probe peptide (HLA-B∗38:01 assay); cited from earlier work
# [8] = target: HLA-B∗38:01 (purified MHC molecules) (human); experiment: radioligand binding; cell-free competitive assay as for B∗39:06, with purified HLA-B∗38:01 and radiolabelled … as the probe
Molecule,IC50 [2] [nM],IC50 [3] [nM],IC50 (HLA-B∗38:01 [5]) [nM],IC50 (HLA-B∗39:01) [nM],IC50 (HLA-B∗39:06 [6]) [nM],other results
… (Variola virus RNA helicase 346–354) (peptide),,,,,,IC50 [1]: 1.4 nM
"… (human insulin, position 5, 9mer) (peptide)",14,677,,,,IC50 [1]: 850 nM
DHAVVVGV,,,,,,"rank of binding to HLA-B∗39:06 among the candidate endogenous ligands (HLA-B∗39:06 [4]; cell-free competitive assay, purified HLA-B∗39:06 and high-affinity radiolabeled ligand, also data not shown): by far the weakest HLA-B∗39:06 binder among the candidates"
"CC(C)C[C@H](NC(=O)[C@H](C)NC(=O)[C@H](CC(N)=O)NC(=O)[C@H](CCC(=O)O)NC(=O)[C@@H](NC(=O)[C@H](C)NC(=O)[C@@H](NC(=O)[C@H](Cc1c[nH]cn1)NC(=O)[C@@H](N)CO)C(C)C)C(C)C)C(=O)O [SHVAVENAL, reference compound]",,,321,11,696,
YHFLQIPT,,,9750,660,151,
"NRVMLPKA (NLRP2, position 320, 8mer) (peptide)",85,41,,,,
THFPHQVIL,,,142,73,2600,
"FRYQGHVGA [Homo sapiens proteasome subunit 127–135, reference compound]",,,,,,"IC50 (HLA-B∗39:06 [4]; unlabeled version of the radiolabeled probe, read-out: IC50 of the probe peptide for B∗39:06): 24 nM"
"MRLLPLLA (human insulin, position 5, 8mer) (peptide)",62,41,,,,IC50 [1]: 44500 nM
MRLLPLLAL [MRLLPLLAL],,,850,14,677,
"… (DDX3X, position 2) (peptide)",11,696,,,,IC50 [1]: 321 nM
WMRLLPLLA,,,> 50000,865,155,
YHIPGDTLF,,,,,,IC50 (HLA-B∗38:01 [7]): 1.4 nM
NRVMLPKA,,,,85,41,
MRLLPLLA,,,44500,62,41,
FRLLCALTSL,,,2760,290,7.4,
SASIPLTVVA,,,> 50000,30900,310,
CC(C)C[C@H](NC(=O)[C@H](CS)NC(=O)[C@@H]1CCCN1C(=O)[C@H](CO)NC(=O)[C@H](CO)NC(=O)[C@H](Cc1c[nH]cn1)NC(=O)[C@@H](N)CC(N)=O)C(=O)N[C@@H](CCC(=O)O)C(=O)N[C@@H](CCC(N)=O)C(=O)N[C@@H](Cc1ccccc1)C(=O)O,,,,25700,> 50000,
NRVMLPKAA,,,> 50000,35,14,
FLFLFAVG,,,> 50000,17900,405,
TNLFLFLFAV,,,6690,3950,354,
"YHFLQIPT (human G6Pase 2, position 307) (peptide)",660,151,,,,IC50 [1]: 9750 nM
SHLVEALYL,,,10,5250,35600,
"WMRLLPLLA [… (human insulin, position 4)]",865,155,,,,IC50 [8]: > 50000 nM
"NRVMLPKAA [… (NLRP2 320 to 328), free peptide]",35,14,,,,IC50 [8]: > 50000 nM
"SASIPLTVVA [… (human G6Pase 2, position 328)]",30900,310,,,,IC50 [8]: > 50000 nM
"FLFLFAVG [FLFLFAVG (human G6Pase 2, position 213)]",17900,405,,,,IC50 [8]: > 50000 nM
FRYQGHVGA (not fully specified) [… (Homo sapiens proteasome subunit 127–135)],,24,,,,
